Measurements as given in patent US4816393A, “Nucleoside triphosphate-dependent 1-methylhydantoinase, a process for obtaining it and the use thereof” (Boehringer Mannheim GmbH, priority 1984, dated 1989).
Like-named read-outs stand apart in the source and are kept apart here.

Assays:
1-methylhydantoinase [1] = test: Activators of 1-methylhydantoinase; assay type: biochemical, Arthrobacter species DSM 2563
Protocol: Relative activity in % (30 mmol/liter ammonium sulphate (AS)=100)
(§1) The activity determination was carried out as follows: […]
(§2) 2. 1-Methylhydantoin solution: 10 mmol/liter
(§3) Wavelength 546 mn; T=25° C.; light path 1 cm.; final volume 2.03 ml.; extinction coefficient of the dye formed=13 cm^2 /μmol. […]
(§4) ^++ For the investigation according to Points 2, 3b, 4, 5 and 6 given
(§5) 4. Calculation: [formula] Remark: ΔA/min. must not to be more than 0.66; otherwise dilute sample. Lag phase about 5 minutes.

1-methylhydantoinase [2] = test: Nucleotide specificity of 1-methylhydantoinase (via carbamoylsarcosinamidohydrolase + sarcosine oxidase); assay type: biochemical, Arthrobacter species DSM 2563; conditions: nucleotide 4 mmol/liter
Protocol: Relative activity in % (ATP=100) determined via the reaction sequence catalyzed by carbamoylsarcosinamidohydrolase+sarcosine oxidase:
as §1, §2, §3, §4, §5

1-methylhydantoinase [3] = test: Inhibitors of 1-methylhydantoinase; assay type: biochemical, Arthrobacter species DSM 2563; conditions: for relative activity %: 7.5 mM Mg++ in the reaction mixture
Protocol: as §1, §2, §3, §4, §5

1-methylhydantoinase [4] = test: Enzymatic colour test for the determination of creatinine; assay type: biochemical
Text: 1. Enzymatic colour tetst for the determination of 1-methylhydantoin (1-methylhydantoinase/N-carbamoylsarcosinamidohydrolase/sarcosine oxidase reaction with peroxidase/4-aminoantipyrine/2,4,6-tribromo-3-hydroxybenzoicacid colour indicator system) […]
Corresponding to reagent 1.1. of Example 5, however with the addition of creatinine iminohydrolase, 2 U/ml. (final concentration).
Corresponding to Point 1.2 of Example 5 but, as sample, there are used aqueous creatinine solutions (0.0877 to 1.754 mmol/liter) and the incubation period for P and RL is prolonged to 20 minutes.

1-methylhydantoinase [5] = test: Metal ion dependence of 1-methylhydantoinase activity; assay type: biochemical, Arthrobacter species DSM 2563
Protocol: Relative activity in % (5 mmol/liter magnesium chloride=100)
as §1
2. 1-Methylhydantoin solution: 10 mmol/liter […]
as §4, §5

1-methylhydantoinase [6] = test: Michaelis constants of 1-methylhydantoinase; assay type: biochemical, Arthrobacter species DSM 2563; conditions: pH 7.8
[7] = activator substance 30 mmol/liter

Compound: [Cl-].[Na+] [NaCl]
- Relative activity in % (30 mmol/liter ammonium sulphate (AS)=100) (1-methylhydantoinase [1]; [7]): 41%

Compound: O=S(=O)([O-])[O-].[Na+].[Na+] [Na2 SO4]
- Relative activity in % (30 mmol/liter ammonium sulphate (AS)=100) (1-methylhydantoinase [1]; [7]): 39%

Compound: O=c1ccn([C@@H]2O[C@H](COP(=O)(O)OP(=O)(O)OP(=O)(O)O)[C@@H](O)[C@H]2O)c(=O)[nH]1 [UTP]
- Relative activity in % (ATP=100) (1-methylhydantoinase [2]): 0%

Compound: O=S(=O)([O-])[O-].[K+].[K+] [K2 SO4]
- Relative activity in % (30 mmol/liter ammonium sulphate (AS)=100) (1-methylhydantoinase [1]; [7]): 59%

Compound: [F-].[Na+] [NaF]
- Inhibition (in words) (1-methylhydantoinase [3]): Significant inhibition
- inhibition (1-methylhydantoinase [3]; 1×10^-2 mol/liter): 100%

Compound: N.N.O=S(=O)(O)O [(NH4)2 SO4, ammonium sulphate]
- Relative activity in % (30 mmol/liter ammonium sulphate (AS)=100) (1-methylhydantoinase [1]; [7]): 100%
- Relative activity in % (30 mmol/liter ammonium sulphate (AS)=100) (1-methylhydantoinase [1]; activator substance 10 mol/liter): 95%

Compound: CN(CC(=O)O)C(=N)N [creatine]
- colour reaction (1-methylhydantoinase [4]; creatine solution (884 μmol/liter) as sample instead of creatinine, test batch 8.2): no colour reaction

Compound: Nc1ncnc2c1ncn2[C@@H]1O[C@H](COP(=O)(O)OP(=O)(O)O)[C@@H](O)[C@H]1O [ADP]
- Relative activity in % (ATP=100) (1-methylhydantoinase [2]): 1%

Compound: [Cl-].[Cl-].[Mg+2] [MgCl2, magnesium chloride]
- Relative activity in % (5 mmol/liter magnesium chloride=100) (1-methylhydantoinase [5]; metal salt 1 mmol/liter): 83%
- Relative activity in % (5 mmol/liter magnesium chloride=100) (1-methylhydantoinase [5]; metal salt 5 mmol/liter): 100%
- Relative activity in % (5 mmol/liter magnesium chloride=100) (1-methylhydantoinase [5]; metal salt 10 mmol/liter): 98%

Compound: CC(=O)O [NH4 acetate]
- Relative activity in % (30 mmol/liter ammonium sulphate (AS)=100) (1-methylhydantoinase [1]; [7]): 98%

Compound: [Cl-].[Cl-].[Zn+2] [ZnCl2]
- Relative activity in % (5 mmol/liter magnesium chloride=100) (1-methylhydantoinase [5]; metal salt 5 mmol/liter): 24%

Compound: Nc1ncnc2c1ncn2[C@@H]1O[C@H](COP(=O)(O)O)[C@@H](O)[C@H]1O [AMP]
- Relative activity in % (ATP=100) (1-methylhydantoinase [2]): 0%

Compound: Cl.N [NH4 Cl, ammonium chloride]
- Relative activity in % (30 mmol/liter ammonium sulphate (AS)=100) (1-methylhydantoinase [1]; [7]): 91%

Compound: Nc1ccn([C@@H]2O[C@H](COP(=O)(O)OP(=O)(O)OP(=O)(O)O)[C@@H](O)[C@H]2O)c(=O)n1 [CTP]
- Relative activity in % (ATP=100) (1-methylhydantoinase [2]): 1.5%

Compound: Nc1nc2c(ncn2[C@@H]2O[C@H](COP(=O)(O)OP(=O)(O)OP(=O)(O)O)[C@@H](O)[C@H]2O)c(=O)[nH]1 [GTP]
- Relative activity in % (ATP=100) (1-methylhydantoinase [2]): 7%

Compound: O=P([O-])([O-])OP(=O)([O-])OP(=O)([O-])[O-].[Na+].[Na+].[Na+].[Na+].[Na+] [Na tripolyphosphate]
- Relative activity in % (ATP=100) (1-methylhydantoinase [2]): 0%

Compound: Na hexametaphosphate
- Relative activity in % (ATP=100) (1-methylhydantoinase [2]): 0%

Compound: [Cl][Mn][Cl] [MnCl2]
- Relative activity in % (5 mmol/liter magnesium chloride=100) (1-methylhydantoinase [5]; metal salt 5 mmol/liter): 60%

Compound: O=P(O)(O)OP(=O)(O)O [PPi, pyrophosphate]
- Relative activity in % (ATP=100) (1-methylhydantoinase [2]): 0%

Compound: O=C(O)O [NaHCO3]
- Relative activity in % (30 mmol/liter ammonium sulphate (AS)=100) (1-methylhydantoinase [1]; [7]): 40%

Compound: O=S(=O)([O-])[O-].[Li+].[Li+] [Li2 SO4]
- Relative activity in % (30 mmol/liter ammonium sulphate (AS)=100) (1-methylhydantoinase [1]; [7]): 40%

Compound: CN1CC(=O)NC1=N [creatinine]
- colour reaction (1-methylhydantoinase [4]; creatinine iminohydrolase omitted from Reagent 8.1): no colour reaction

Compound: O=C(O)CN(CCN(CC(=O)O)CC(=O)O)CC(=O)O [EDTA]
- Inhibition (in words) (1-methylhydantoinase [3]): Significant inhibition
- relative activity % (1-methylhydantoinase [3]; EDTA 5 mol/liter (so in the source)): 100%
- relative activity % (1-methylhydantoinase [3]; EDTA 10 mol/liter (so in the source)): 42%
- relative activity % (1-methylhydantoinase [3]; EDTA 50 mol/liter (so in the source)): 2%

Compound: N [NH4^+]
- Activation (in words) (1-methylhydantoinase [1]): Significant activation

Compound: CN1CC(=O)NC1=O [1-methylhydantoin]
- Km (1-methylhydantoinase [6]; 0.15 mol/liter TES, via ATP, read-out: Km 1-methylhydantoin): 20 µM

Compound: Nc1ncnc2c1ncn2[C@@H]1O[C@H](COP(=O)(O)OP(=O)(O)OP(=O)(O)O)[C@@H](O)[C@H]1O [ATP, adenosine-5'-triphosphate]
- Relative activity in % (ATP=100) (1-methylhydantoinase [2]): 100%
- Km (1-methylhydantoinase [6]; TES 0.15 mol/liter, via sarcosine, read-out: Km ATP): 800 µM

Compound: Cc1cn([C@H]2C[C@H](O)[C@@H](COP(=O)(O)OP(=O)(O)OP(=O)(O)O)O2)c(=O)[nH]c1=O [TTP]
- Relative activity in % (ATP=100) (1-methylhydantoinase [2]): 0%
